According to ChEMBL document CHEMBL5113400, “Design, synthesis, and biological evaluation of trizole-based heteroaromatic derivatives as Bcr-Abl kinase inhibitors” (Eur J Med Chem, 2022):
Calls of active or inactive are those of the source. No cut-off for these calls is given here.

Assays:
K562 [1] = experiment: Induction of cell cycle arrest in human K562 cells assessed as accumulation at S phase at 5 to 20 uM incubated for 48 hrs by PI staining based flow cytometry (Rvb=49%); type: functional; settings: dose 5-20 µM
K562 [2] = experiment: Antiproliferative activity against human K562 cells assessed as inhibition of cell growth incubated for 48 hrs by MTT assay; type: functional, cell-based; settings: K562, 48 h
HEK293 = experiment: Cytotoxicity against human HEK293 cells assessed as inhibition of cell growth upto 100 uM incubated for 48 hrs by MTT assay; type: toxicity, cell-based; settings: hek293, 48 h
K562 [3] = experiment: Induction of apoptosis in human K562 cells assessed as viable cells at 20 uM incubated for 48 hrs by Annexin V-FITC/PI staining based flow cytometry analysis (Rvb= 83.0.5%); type: functional; settings: read-out: Activity
EA.hy 926 = experiment: Cytotoxicity against human EA.hy 926 cells assessed as inhibition of cell growth upto 100 uM incubated for 48 hrs by MTT assay; type: toxicity, cell-based; settings: ea.hy 926, 48 h
K562/Adr = experiment: Antiproliferative activity against human Adriamycin-resistant K562/Adr cells assessed as inhibition of cell growth incubated for 48 hrs by MTT assay; type: functional, cell-based
K562 [4] = experiment: Induction of apoptosis in human K562 cells assessed as viable cells at 5 uM incubated for 48 hrs by Annexin V-FITC/PI staining based flow cytometry analysis (Rvb= 83.0.5%); type: functional; settings: read-out: Activity
BaF3 [5] = experiment: Antiproliferative activity against mouse BaF3 cells assessed as inhibition of cell growth incubated for 72 hrs by CellTiter-Glo luminescent assay; type: functional, cell-based; settings: BaF3, 72 h
BaF3 [6] = experiment: Antiproliferative activity against mouse BaF3 cells expressing wild type Bcr-Abl assessed as inhibition of cell growth incubated for 72 hrs by CellTiter-Glo luminescent assay; type: functional, cell-based; settings: BaF3, 72 h
K562 [7] = experiment: Induction of apoptosis in human K562 cells assessed as necrotic cells at 20 uM incubated for 48 hrs by Annexin V-FITC/PI staining based flow cytometry analysis (Rvb= 0.25%); type: functional
K562 [8] = experiment: Induction of apoptosis in human K562 cells assessed as necrotic cells at 10 uM incubated for 48 hrs by Annexin V-FITC/PI staining based flow cytometry analysis (Rvb= 0.25%); type: functional
K-562R = experiment: Antiproliferative activity against human K-562R cells expressing Bcr-Abl T315I mutant assessed as inhibition of cell growth incubated for 48 hrs by MTT assay; type: functional, cell-based
K562 [9] = experiment: Induction of apoptosis in human K562 cells assessed as late apoptotic cells at 20 uM incubated for 48 hrs by Annexin V-FITC/PI staining based flow cytometry analysis (Rvb= 5.35%); type: functional
K562 [10] = experiment: Induction of apoptosis in human K562 cells assessed as viable cells at 10 uM incubated for 48 hrs by Annexin V-FITC/PI staining based flow cytometry analysis (Rvb= 83.0.5%); type: functional; settings: read-out: Activity
BaF3 [11] = experiment: Antiproliferative activity against mouse BaF3 cells expressing Bcr-Abl T315I mutant assessed as inhibition of cell growth incubated for 72 hrs by CellTiter-Glo luminescent assay; type: functional, cell-based; settings: BaF3, 72 h
K562 [12] = experiment: Induction of apoptosis in human K562 cells assessed as early apoptotic cells at 20 uM incubated for 48 hrs by Annexin V-FITC/PI staining based flow cytometry analysis (Rvb= 11.35%); type: functional
K562 [13] = experiment: Induction of apoptosis in human K562 cells assessed as early apoptotic cells at 10 uM incubated for 48 hrs by Annexin V-FITC/PI staining based flow cytometry analysis (Rvb= 11.35%); type: functional
K562 [14] = experiment: Induction of apoptosis in human K562 cells assessed as necrotic cells at 5 uM incubated for 48 hrs by Annexin V-FITC/PI staining based flow cytometry analysis (Rvb= 0.25%); type: functional
[15] = molecular target: T1, Bcr/Abl fusion protein (Homo sapiens) (UniProt P00519+P11274); experiment: Inhibition of Bcr-Abl phosphorylation at Tyr245 residue in human K562 cells expressing wild type Bcr-Abl at 0.1 to 15 uM measured after 48 hrs by Western blot analysis; type: cell-based; settings: dose 0.1-15 µM, DDE = dose-dependent effect
Bcr/Abl fusion protein [16] = molecular target: Bcr/Abl fusion protein (Homo sapiens, UniProt P00519); experiment: Inhibition of wild type Bcr-Abl (unknown origin) incubated for 1 hr in presence of ATP by ADP-Glo kinase assay; type: protein assay
K562 [17] = experiment: Induction of apoptosis in human K562 cells assessed as late apoptotic cells at 10 uM incubated for 48 hrs by Annexin V-FITC/PI staining based flow cytometry analysis (Rvb= 5.35%); type: functional
K562 [18] = experiment: Induction of apoptosis in human K562 cells assessed as late apoptotic cells at 5 uM incubated for 48 hrs by Annexin V-FITC/PI staining based flow cytometry analysis (Rvb= 5.35%); type: functional
[19] = molecular target: T2, Signal transducer and activator of transcription 5A (Homo sapiens) (UniProt P42229); experiment: Inhibition of STAT5 phosphorylation at Tyr694 residue in human K562 cells expressing wild type Bcr-Abl at 0.1 to 15 uM measured after 48 hrs by Western blot analysis; type: cell-based; settings: dose 0.1-15 µM, DDE = dose-dependent effect
T2 sequence (whole entry): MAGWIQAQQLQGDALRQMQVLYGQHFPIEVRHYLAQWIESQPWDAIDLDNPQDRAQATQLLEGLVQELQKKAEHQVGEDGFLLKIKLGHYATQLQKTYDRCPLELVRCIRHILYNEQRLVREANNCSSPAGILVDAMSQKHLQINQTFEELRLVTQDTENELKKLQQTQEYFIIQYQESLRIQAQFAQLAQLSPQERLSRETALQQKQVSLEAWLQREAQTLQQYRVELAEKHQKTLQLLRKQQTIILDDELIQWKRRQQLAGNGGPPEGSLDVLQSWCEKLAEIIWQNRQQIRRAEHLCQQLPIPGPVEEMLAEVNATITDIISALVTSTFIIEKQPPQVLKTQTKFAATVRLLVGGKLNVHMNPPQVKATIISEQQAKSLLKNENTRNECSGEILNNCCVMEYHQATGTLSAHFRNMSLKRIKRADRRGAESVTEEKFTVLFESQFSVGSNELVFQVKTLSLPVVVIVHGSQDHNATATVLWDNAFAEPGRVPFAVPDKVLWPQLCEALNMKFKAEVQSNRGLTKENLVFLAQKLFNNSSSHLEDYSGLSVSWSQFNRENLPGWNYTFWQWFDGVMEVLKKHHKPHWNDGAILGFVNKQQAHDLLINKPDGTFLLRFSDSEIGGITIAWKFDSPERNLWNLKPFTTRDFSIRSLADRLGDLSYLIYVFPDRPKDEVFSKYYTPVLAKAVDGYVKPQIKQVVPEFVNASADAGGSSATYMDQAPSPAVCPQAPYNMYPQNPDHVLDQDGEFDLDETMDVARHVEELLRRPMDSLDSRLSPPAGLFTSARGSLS

K562 [20] = experiment: Induction of apoptosis in human K562 cells assessed as early apoptotic cells at 5 uM incubated for 48 hrs by Annexin V-FITC/PI staining based flow cytometry analysis (Rvb= 11.35%); type: functional
BaF3 [21] = experiment: Antiproliferative activity against mouse BaF3 cells expressing Bcr-Abl T315I mutant assessed as inhibition of cell growth at 30 uM incubated for 72 hrs by CellTiter-Glo luminescent assay; type: functional
Bcr/Abl fusion protein [22] = molecular target: Bcr/Abl fusion protein (Homo sapiens, UniProt P00519, T315I); experiment: Inhibition of Bcr-Abl T315I mutant (unknown origin) incubated for 1 hr in presence of ATP by ADP-Glo kinase assay; type: protein assay
K562 [23] = experiment: Induction of apoptosis in human K562 cells assessed as late apoptotic cells at 10 uM incubated for 48 hrs by Annexin V-FITC/PI staining based flow cytometry analysis (Rvb= 2.89%); type: functional
K562 [24] = experiment: Induction of apoptosis in human K562 cells assessed as necrotic cells at 5 uM incubated for 48 hrs by Annexin V-FITC/PI staining based flow cytometry analysis (Rvb= 0.29%); type: functional
K562 [25] = experiment: Induction of cell cycle arrest in human K562 cells assessed as reduction in G0/G1 phase at 1 to 10 uM incubated for 48 hrs by PI staining based flow cytometry; type: functional; settings: dose 1-10 µM
K562 [26] = experiment: Induction of apoptosis in human K562 cells assessed as viable cells at 5 uM incubated for 48 hrs by Annexin V-FITC/PI staining based flow cytometry analysis (Rvb= 80.56%); type: functional; settings: read-out: Activity
K562 [27] = experiment: Induction of apoptosis in human K562 cells assessed as viable cells at 10 uM incubated for 48 hrs by Annexin V-FITC/PI staining based flow cytometry analysis (Rvb= 80.56%); type: functional; settings: read-out: Activity
K562 [28] = experiment: Induction of cell cycle arrest in human K562 cells assessed as accumulation at S phase at 1 to 10 uM incubated for 48 hrs by PI staining based flow cytometry; type: functional; settings: dose 1-10 µM
K562 [29] = experiment: Induction of apoptosis in human K562 cells assessed as late apoptotic cells at 1 uM incubated for 48 hrs by Annexin V-FITC/PI staining based flow cytometry analysis (Rvb= 2.89%); type: functional
K562 [30] = experiment: Induction of apoptosis in human K562 cells assessed as viable cells at 1 uM incubated for 48 hrs by Annexin V-FITC/PI staining based flow cytometry analysis (Rvb= 80.56%); type: functional; settings: read-out: Activity
K562 [31] = experiment: Induction of apoptosis in human K562 cells assessed as early apoptotic cells at 10 uM incubated for 48 hrs by Annexin V-FITC/PI staining based flow cytometry analysis (Rvb= […]); type: functional
K562 [32] = experiment: Induction of apoptosis in human K562 cells assessed as early apoptotic cells at 5 uM incubated for 48 hrs by Annexin V-FITC/PI staining based flow cytometry analysis (Rvb= […]); type: functional
K562 [33] = experiment: Induction of apoptosis in human K562 cells assessed as early apoptotic cells at 1 uM incubated for 48 hrs by Annexin V-FITC/PI staining based flow cytometry analysis (Rvb= […]); type: functional
[34] = molecular target: T1, Bcr/Abl fusion protein (Homo sapiens); experiment: Inhibition of Bcr-Abl phosphorylation at Tyr245 residue in human K562 cells expressing wild type Bcr-Abl at 5 to 15 uM measured after 48 hrs by Western blot analysis; type: cell-based; settings: dose 5-15 µM
K562 [35] = experiment: Induction of apoptosis in human K562 cells assessed as necrotic cells at 10 uM incubated for 48 hrs by Annexin V-FITC/PI staining based flow cytometry analysis (Rvb= 0.29%); type: functional
K562 [36] = experiment: Induction of apoptosis in human K562 cells assessed as necrotic cells at 1 uM incubated for 48 hrs by Annexin V-FITC/PI staining based flow cytometry analysis (Rvb= 0.29%); type: functional
K562 [37] = experiment: Induction of apoptosis in human K562 cells assessed as late apoptotic cells at 5 uM incubated for 48 hrs by Annexin V-FITC/PI staining based flow cytometry analysis (Rvb= 2.89%); type: functional

O=C(Nc1n[nH]c2cc(-c3cn([C@@H]4CN[C@H](C(=O)Nc5ccc(Cl)c(C(F)(F)F)c5)C4)nn3)ccc12)C1CC1 was tested, and the Activity (K562 [1]) was 54.15%, the IC50 (K562 [2]) was 5.2 µM and the Activity (HEK293) was “Non-Toxic”. For the same compound, the viability at 20 µM (K562 [3]) was 54.4%, the Activity (EA.hy 926) was “Non-Toxic” and the IC50 (K562/Adr) was 9.57 µM. For the same compound, the viability at 5 µM (K562 [4]) was 76.7%, the IC50 (BaF3 [5]) was over 20 µM and the IC50 (BaF3 [6]) was 1.42 µM. For the same compound, the Activity (K562 [7]) was 0.23%, the Activity (K562 [8]) was 0.19% and the IC50 (K-562R) was 40.1 µM. For the same compound, the Activity (K562 [9]) was 12.2%, the viability at 10 µM (K562 [10]) was 68.6% and the IC50 (BaF3 [11]) was 9.47 µM. For the same compound, the Activity (K562 [12]) was 33.16%, the Activity (K562 [13]) was 18.48% and the Activity (K562 [14]) was 0.22%. For the same compound, the inhibition [15] was “Dde”, the IC50 (Bcr/Abl fusion protein [16]) was 0.0015 µM and the Activity (K562 [17]) was 12.74%. For the same compound, the Activity (K562 [18]) was 8.75%, the inhibition [19] was “Dde” and the Activity (K562 [20]) was 14.34%. For the same compound, the inhibition at 30 µM (BaF3 [21]) was 85.4% and the IC50 (Bcr/Abl fusion protein [22]) was 0.188 µM.
In the case of CS(=O)(=O)Nc1ccc(-c2cn([C@@H]3CN[C@H](C(=O)Nc4ccc(Cl)c(C(F)(F)F)c4)C3)nn2)cn1, the Activity (K562 [23]) is reported as 4.11%, the Activity (K562 [24]) is reported as 0.4% and the Activity (K562 [25]) is reported as “Active”. The IC50 (K562 [2]) was 5.06 µM, the Activity (HEK293) was “Non-Toxic” and the Activity (EA.hy 926) was “Non-Toxic”. The IC50 (K562/Adr) was 4.72 µM, the viability at 5 µM (K562 [26]) was 79.3% and the IC50 (BaF3 [5]) was over 20 µM. For the same compound, the viability at 10 µM (K562 [27]) was 71.8%, the IC50 (BaF3 [6]) was 6.96 µM and the Activity (K562 [28]) was “Active”. The IC50 (K-562R) was 13.3 µM, the Activity (K562 [29]) was 2.43% and the viability at 1 µM (K562 [30]) was 79.3%. For the same compound, the Activity (K562 [31]) was 23.79%, the Activity (K562 [32]) was 17.14% and the Activity (K562 [33]) was 18.03%. The IC50 (BaF3 [11]) was 4.13 µM, the inhibition [34] was “Active” and the Activity (K562 [35]) was 0.28%. For the same compound, the IC50 (Bcr/Abl fusion protein [16]) was 0.00049 µM, the Activity (K562 [36]) was 0.19% and the inhibition [19] was “Dde”. The Activity (K562 [37]) was 3.19%, the inhibition at 30 µM (BaF3 [21]) was 99.7% and the IC50 (Bcr/Abl fusion protein [22]) was 0.111 µM.
